Experimental data from PubChem BioAssay AID330 (DTP/NCI, 2004).
Several values for one entry are separate records, joined by “and”; a condition that tells them apart may be missing. Equal entries are not always repeated. Toxic doses and inconclusive results are not listed. The calls were made as follows: active = survival T/C of 150% or more; inactive = T/C below 125% in these data.

Test system: P388 leukemia ip, CD2F1 mice, survival T/C
Test: NCI In Vivo Anticancer Drug Screen. Data for tumor model P388 Leukemia (intraperitoneal) in CD2F1 (CDF1) mice
Details: endpoint: median survival time, higher = longer survival
Summary of the method: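 Mice carrying the transplanted tumor received test compound or vehicle. Survival was recorded in each group, and the value is the treated-group measurement divided by that of the vehicle-treated control group.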

[1] = dose: 50.0 mg/kg/injection, schedule: Q01DX009 (ip), vehicle: saline
[2] = dose: 100.0 mg/kg/injection, schedule: Q01DX009 (ip), vehicle: saline
[3] = dose: 60.0 mg/kg/injection, schedule: Q01DX005 (ip), vehicle: saline with Tween-80
[4] = dose: 120.0 mg/kg/injection, schedule: Q01DX005 (ip), vehicle: saline with Tween-80
[5] = dose: 100.0 mg/kg/injection, schedule: Q04DX002 (ip), vehicle: saline with Tween-80
[6] = dose: 200.0 mg/kg/injection, schedule: Q04DX002 (ip), vehicle: saline with Tween-80
[7] = dose: 400.0 mg/kg/injection, schedule: Q04DX002 (ip), vehicle: saline with Tween-80
[8] = dose: 200.0 mg/kg/injection, schedule: Q01DX009 (ip), vehicle: saline
[9] = dose: 25.0 mg/kg/injection, schedule: Q01DX009 (ip), vehicle: other
[10] = dose: 50.0 mg/kg/injection, schedule: Q01DX009 (ip), vehicle: other
[11] = dose: 100.0 mg/kg/injection, schedule: Q01DX009 (ip), vehicle: other
[12] = dose: 200.0 mg/kg/injection, schedule: Q01DX009 (ip), vehicle: other
[13] = dose: 25.0 mg/kg/injection, schedule: Q01DX009 (ip), vehicle: saline
[14] = dose: 6.25 mg/kg/injection, schedule: Q01DX009 (ip), vehicle: saline

Measured: T/C

Nc1ccc(SCCOC(c2ccccc2)(c2ccccc2)c2ccccc2)cc1
inactive: dose: 100.0 mg/kg/injection, schedule: Q04DX003 (ip), vehicle: saline 101 % of control | dose: 200.0 mg/kg/injection, schedule: Q04DX003 (ip), vehicle: saline 99 % of control | dose: 400.0 mg/kg/injection, schedule: Q04DX003 (ip), vehicle: saline 102 % of control

O=C(O)C(=O)O.[Co].[NH-]CCC[NH-].[NH-]CCC[NH-]
inactive: dose: 25.0 mg/kg/injection, schedule: Q04DX002 (ip), vehicle: saline 98 % of control

[Cu].c1ccc2c3[n-]c(c2c1)/N=c1\[n-]/c(c2ccccc12)=N\c1[n-]c(c2ccccc12)/N=c1\[n-]/c(c2ccccc12)=N\3
inactive: [1] 104 % of control | [2] 93 % of control

CCN1CC(O)Cc2ccccc21 (stereo not drawn)
inactive: [3] 100 % of control | [4] 94 % of control

COc1ccc(SS(=O)c2ccc(OC)cc2)cc1 (stereo not drawn)
inactive: [5] 100 % of control | [6] 102 % of control | [7] 102 % of control

CC(NC(=O)C(N)Cc1ccc(O)cc1)C(=O)NCC(=O)N(C)C(Cc1ccccc1)C(=O)NC(CO)CCS(C)=O (stereo not drawn)
inactive: [1] 115 % of control | [2] 95 % of control | [8] 105 % of control

N#CCCSc1nnc(N)s1
inactive: dose: 50.0 mg/kg/injection, schedule: Q01DX009 (ip), vehicle: Klucel (hydroxypropylcellulose) (HPC) 108 % of control | dose: 100.0 mg/kg/injection, schedule: Q01DX009 (ip), vehicle: Klucel (hydroxypropylcellulose) (HPC) 103 % of control | dose: 200.0 mg/kg/injection, schedule: Q01DX009 (ip), vehicle: Klucel (hydroxypropylcellulose) (HPC) 104 % of control | dose: 400.0 mg/kg/injection, schedule: Q01DX009 (ip), vehicle: Klucel (hydroxypropylcellulose) (HPC) 100 % of control

O=C1CN(c2ccccc2)CC(=O)N2Cc3ccccc3CN12
inactive: dose: 6.25 mg/kg/injection, schedule: Q01DX005 (ip), vehicle: saline with Tween-80 96 % of control | dose: 12.5 mg/kg/injection, schedule: Q01DX005 (ip), vehicle: saline with Tween-80 100 % of control | dose: 25.0 mg/kg/injection, schedule: Q01DX005 (ip), vehicle: saline with Tween-80 98 % of control

Cc1cc(Br)ccc1N=Cc1ccc(C=Nc2ccc(Br)cc2C)cc1
inactive: [1] 90 % of control | [2] 86 % of control | [8] 92 % of control

COc1ccc2nc3cc(Cl)ccc3c(NCCC3CCCN4CCCCC34)c2c1 (stereo not drawn)
inactive: dose: 12.5 mg/kg/injection, schedule: Q01DX005 (ip), vehicle: distilled water + Tween-80 109 % of control | dose: 25.0 mg/kg/injection, schedule: Q01DX005 (ip), vehicle: distilled water + Tween-80 114 % of control

COc1cccc2c1S(=O)(=O)C(c1ccccc1)=CC2=O
inactive: dose: 60.0 mg/kg/injection, schedule: Q01DX005 (ip), vehicle: Klucel (hydroxypropylcellulose) (HPC) 105 % of control | dose: 120.0 mg/kg/injection, schedule: Q01DX005 (ip), vehicle: Klucel (hydroxypropylcellulose) (HPC) 105 % of control | dose: 240.0 mg/kg/injection, schedule: Q01DX005 (ip), vehicle: Klucel (hydroxypropylcellulose) (HPC) 120 % of control

Cn1c(-c2ccccc2Cl)cc(C=O)c1-c1ccccc1
inactive: dose: 100.0 mg/kg/injection, schedule: Q01DX001 (ip), vehicle: saline with Tween-80 99 % of control | dose: 200.0 mg/kg/injection, schedule: Q01DX001 (ip), vehicle: saline with Tween-80 93 % of control | dose: 400.0 mg/kg/injection, schedule: Q01DX001 (ip), vehicle: saline with Tween-80 93 % of control

CCOC(=O)C1CCCCC1NC1CCCCC1C(=O)OCC (stereo not drawn)
inactive: dose: 34.5 mg/kg/injection, schedule: Q01DX009 (ip), vehicle: saline with Tween-80 105 % of control | dose: 50.0 mg/kg/injection, schedule: Q01DX009 (ip), vehicle: saline with Tween-80 120 % of control | [1] 103 % of control | dose: 100.0 mg/kg/injection, schedule: Q01DX009 (ip), vehicle: saline with Tween-80 117 % of control | [2] 112 % of control | dose: 138.0 mg/kg/injection, schedule: Q01DX009 (ip), vehicle: saline with Tween-80 107 % of control | dose: 200.0 mg/kg/injection, schedule: Q01DX009 (ip), vehicle: saline with Tween-80 120 % of control | [8] 108 % of control

Cc1ccc(S(=O)(=O)N/N=C/c2ccc(O)c(O)c2)cc1
inactive: dose: 12.5 mg/kg/injection, schedule: Q01DX009 (ip), vehicle: other 112 % of control | [9] 112 % of control | [10] 112 % of control | [11] 111 % of control and 120 % of control | [12] 112 % of control and 121 % of control | dose: 400.0 mg/kg/injection, schedule: Q01DX009 (ip), vehicle: other 122 % of control

COc1cc2c(cc1C1CCCCCc3c1[nH]c1ccccc31)C1CCCCC1N2C (stereo not drawn)
inactive: dose: 12.5 mg/kg/injection, schedule: Q01DX001 (ip), vehicle: distilled water + Tween-80 100 % of control | dose: 25.0 mg/kg/injection, schedule: Q01DX001 (ip), vehicle: distilled water + Tween-80 100 % of control | dose: 50.0 mg/kg/injection, schedule: Q01DX001 (ip), vehicle: distilled water + Tween-80 100 % of control | dose: 100.0 mg/kg/injection, schedule: Q01DX001 (ip), vehicle: distilled water + Tween-80 95 % of control | dose: 200.0 mg/kg/injection, schedule: Q01DX001 (ip), vehicle: distilled water + Tween-80 91 % of control

O=[N+]([O-])c1cccc(C2OCC3(CO2)COC(c2cccc([N+](=O)[O-])c2)OC3)c1 (stereo not drawn)
inactive: [1] 100 % of control | [2] 100 % of control | [8] 101 % of control

O=C(O)C(O)C(Cl)(Cl)Cl (stereo not drawn)
inactive: [13] 107 % of control | [1] 96 % of control | [2] 88 % of control | [8] 91 % of control

CSC(N)=Nc1cccc2c1CCCC2
inactive: [13] 100 % of control | [1] 100 % of control | [2] 95 % of control

CNc1nc(N)nc2c1nc(Cl)n2C1OC(CO)C(O)C1O (stereo not drawn)
inactive: dose: 50.0 mg/kg/injection, schedule: Q01DX005 (ip), vehicle: saline with Tween-80 102 % of control | dose: 100.0 mg/kg/injection, schedule: Q01DX005 (ip), vehicle: saline with Tween-80 101 % of control | dose: 200.0 mg/kg/injection, schedule: Q01DX005 (ip), vehicle: saline with Tween-80 95 % of control

CC1(C)N=C(c2ccccc2)C(c2ccccc2)=NC1(C)C
inactive: dose: 100.0 mg/kg/injection, schedule: Q04DX002 (ip), vehicle: saline 101 % of control | dose: 200.0 mg/kg/injection, schedule: Q04DX002 (ip), vehicle: saline 98 % of control | dose: 400.0 mg/kg/injection, schedule: Q04DX002 (ip), vehicle: saline 104 % of control

CC1CCC(O)C23OC4C(OC(C)(C)C4C12C)C3=O (stereo not drawn) (tested in a mixture with another compound)
inactive: [1] 96 % of control | [2] 89 % of control | [8] 94 % of control

Cc1ccc(N2C(=O)N(c3ccc(C)cc3)C3(Sc4ccccc4N3C)C2=O)cc1 (stereo not drawn)
inactive: dose: 25.0 mg/kg/injection, schedule: Q04DX002 (ip), vehicle: saline with Tween-80 95 % of control | dose: 50.0 mg/kg/injection, schedule: Q04DX002 (ip), vehicle: saline with Tween-80 92 % of control | [5] 89 % of control

ClC1=C(Cl)C2(Cl)C3C(Cl)C(Cl)CC3C1(Cl)C2(Cl)Cl (stereo not drawn)
inactive: dose: 3.12 mg/kg/injection, schedule: Q01DX009 (ip), vehicle: saline + Tween-80 + alcohol 100 % of control and 101 % of control | dose: 6.25 mg/kg/injection, schedule: Q01DX009 (ip), vehicle: saline + Tween-80 + alcohol 107 % of control and 112 % of control | dose: 12.5 mg/kg/injection, schedule: Q01DX009 (ip), vehicle: saline + Tween-80 + alcohol 114 % of control and 87 % of control | [9] 110 % of control and 89 % of control | dose: 25.0 mg/kg/injection, schedule: Q01DX009 (ip), vehicle: saline + Tween-80 + alcohol 103 % of control and 96 % of control | [10] 110 % of control and 86 % of control and 98 % of control | [11] 108 % of control and 93 % of control | [12] 90 % of control

Cc1ccc2nc(CC(=O)c3ccc4ccccc4c3)c(=O)[nH]c2c1
inactive: [3] 99 % of control | [4] 92 % of control | dose: 240.0 mg/kg/injection, schedule: Q01DX005 (ip), vehicle: saline with Tween-80 94 % of control

CCCCCNCC(=O)ON1CCCC1C(=O)NC(Cc1ccccc1)C(=O)NC(CC(C)C)C(=O)O (stereo not drawn)
inactive: [5] 104 % of control | [6] 101 % of control | [7] 101 % of control

Nc1ccccc1N=C(CC(=O)c1ccco1)C(F)(F)F
inactive: [14] 99 % of control | [13] 91 % of control | [2] 88 % of control | [8] 105 % of control

CCOC(=O)N1CCN(c2ccc(/C=C\c3cccc(/C=C\c4ccc(N5CCN(C(=O)OCC)CC5)cc4)[n+]3C)cc2)CC1
inactive: dose: 3.12 mg/kg/injection, schedule: Q01DX009 (ip), vehicle: saline 118 % of control | [14] 111 % of control
